Laboratory results published in PubChem BioAssay AID330 (DTP/NCI, 2004).
Several values for one entry are separate records, joined by “and”; a condition that tells them apart may be missing. Identical values can stand only once. Toxic doses and inconclusive results are not listed. How the source made its calls: active means survival T/C of 150% or more; inactive means T/C below 125% in these data.

System: P388 leukemia ip, CD2F1 mice, survival T/C
Experiment: NCI In Vivo Anticancer Drug Screen. Data for tumor model P388 Leukemia (intraperitoneal) in CD2F1 (CDF1) mice
Conditions: endpoint: median survival time, higher = longer survival
Method in brief: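 Mice carrying the transplanted tumor received test compound or vehicle. Survival was recorded in each group, and the value is the treated-group measurement divided by that of the vehicle-treated control group.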

[1] = dose: 100.0 mg/kg/injection, schedule: Q04DX003 (ip), vehicle: saline with Tween-80
[2] = dose: 200.0 mg/kg/injection, schedule: Q04DX003 (ip), vehicle: saline with Tween-80
[3] = dose: 50.0 mg/kg/injection, schedule: Q01DX005 (ip), vehicle: saline with Tween-80
[4] = dose: 100.0 mg/kg/injection, schedule: Q01DX005 (ip), vehicle: saline with Tween-80
[5] = dose: 200.0 mg/kg/injection, schedule: Q01DX005 (ip), vehicle: saline with Tween-80
[6] = dose: 100.0 mg/kg/injection, schedule: Q04DX002 (ip), vehicle: saline with Tween-80
[7] = dose: 200.0 mg/kg/injection, schedule: Q04DX002 (ip), vehicle: saline with Tween-80
[8] = dose: 100.0 mg/kg/injection, schedule: Q01DX001 (ip), vehicle: saline
[9] = dose: 200.0 mg/kg/injection, schedule: Q01DX001 (ip), vehicle: saline
[10] = dose: 400.0 mg/kg/injection, schedule: Q01DX001 (ip), vehicle: saline

Measured: T/C

C=CCn1c(=S)[nH]c2ccccc2c1=O
inactive: [1] 90 % of control | [2] 90 % of control | dose: 400.0 mg/kg/injection, schedule: Q04DX003 (ip), vehicle: saline with Tween-80 90 % of control

CCOC(=O)CC1(C)c2nc(NC(C)=O)sc2Cc2sc(NC(C)=O)nc21
inactive: dose: 60.0 mg/kg/injection, schedule: Q01DX005 (ip), vehicle: saline 101 % of control | dose: 120.0 mg/kg/injection, schedule: Q01DX005 (ip), vehicle: saline 100 % of control | dose: 240.0 mg/kg/injection, schedule: Q01DX005 (ip), vehicle: saline 100 % of control

CCCCCCCCCCCCCCCCCCOC(=O)CCN
inactive: [3] 101 % of control | [4] 109 % of control | [5] 113 % of control

S=S1CC2(CSSC2)C1.[Cl][Hg][Cl]
inactive: dose: 7.5 mg/kg/injection, schedule: Q01DX009 (ip), vehicle: saline 111 % of control | dose: 15.0 mg/kg/injection, schedule: Q01DX009 (ip), vehicle: saline 117 % of control

CC1(O)/C=C\C=C(\CO)C2CC(C)(C)C2(O)CC1 (configuration not stated)
inactive: dose: 6625.0 micrograms/kg/injection, schedule: Q01DX005 (ip), vehicle: Klucel (hydroxypropylcellulose) (HPC) 100 % of control | dose: 13250.0 micrograms/kg/injection, schedule: Q01DX005 (ip), vehicle: Klucel (hydroxypropylcellulose) (HPC) 98 % of control | dose: 26500.0 micrograms/kg/injection, schedule: Q01DX005 (ip), vehicle: Klucel (hydroxypropylcellulose) (HPC) 94 % of control | dose: 53000.0 micrograms/kg/injection, schedule: Q01DX005 (ip), vehicle: Klucel (hydroxypropylcellulose) (HPC) 87 % of control

CC(C)c1cc(C=C2C(=O)c3ccccc3C2=O)cc(C(C)C)c1O
inactive: dose: 100.0 mg/kg/injection, schedule: Q04DX002 (ip), vehicle: saline 100 % of control | dose: 200.0 mg/kg/injection, schedule: Q04DX002 (ip), vehicle: saline 100 % of control | dose: 400.0 mg/kg/injection, schedule: Q04DX002 (ip), vehicle: saline 97 % of control

S=C(Nc1ccc(Br)cc1)SCc1ccc2c(c1)OCO2
inactive: dose: 50.0 mg/kg/injection, schedule: Q01DX009 (ip), vehicle: suspension in saline 109 % of control | dose: 100.0 mg/kg/injection, schedule: Q01DX009 (ip), vehicle: suspension in saline 119 % of control | dose: 200.0 mg/kg/injection, schedule: Q01DX009 (ip), vehicle: suspension in saline 93 % of control

Nc1c2cc3c(cc2c[n+]2ccc4ccccc4c12)OCO3
inactive: dose: 6.25 mg/kg/injection, schedule: Q04DX003 (ip), vehicle: distilled water + Tween-80 111 % of control and 113 % of control and 115 % of control | dose: 12.5 mg/kg/injection, schedule: Q04DX003 (ip), vehicle: distilled water + Tween-80 113 % of control and 116 % of control and 120 % of control | dose: 25.0 mg/kg/injection, schedule: Q04DX003 (ip), vehicle: distilled water + Tween-80 111 % of control (2×) and 123 % of control

CC(/C=C/c1ccccc1)=N\O
inactive: dose: 50.0 mg/kg/injection, schedule: Q01DX005 (ip), vehicle: Klucel (hydroxypropylcellulose) (HPC) 97 % of control | dose: 100.0 mg/kg/injection, schedule: Q01DX005 (ip), vehicle: Klucel (hydroxypropylcellulose) (HPC) 99 % of control | dose: 200.0 mg/kg/injection, schedule: Q01DX005 (ip), vehicle: Klucel (hydroxypropylcellulose) (HPC) 97 % of control

N#C/C(N)=C(\C#N)N=Cc1ccc(-c2ccccc2)cc1
inactive: dose: 100.0 mg/kg/injection, schedule: Q01DX001 (ip), vehicle: saline with Tween-80 90 % of control | dose: 200.0 mg/kg/injection, schedule: Q01DX001 (ip), vehicle: saline with Tween-80 90 % of control | dose: 400.0 mg/kg/injection, schedule: Q01DX001 (ip), vehicle: saline with Tween-80 86 % of control

CSC(=S)n1nc(-c2ccccc2)c(N=Nc2cccc(Cl)c2)c1-c1ccccc1
inactive: [6] 107 % of control | [7] 104 % of control | dose: 400.0 mg/kg/injection, schedule: Q04DX002 (ip), vehicle: saline with Tween-80 119 % of control

CC1(Cc2ccccc2)N=C1c1ccccc1 (configuration not stated)
inactive: [6] 106 % of control | [7] 103 % of control

CN(C)c1ccc(N/C=C/C(=O)c2ccccc2O)cc1
inactive: dose: 100.0 mg/kg/injection, schedule: Q01DX001 (ip), vehicle: other 103 % of control | dose: 200.0 mg/kg/injection, schedule: Q01DX001 (ip), vehicle: other 100 % of control | dose: 400.0 mg/kg/injection, schedule: Q01DX001 (ip), vehicle: other 96 % of control

C=CN=NNc1ccc(C#N)cc1
inactive: [1] 90 % of control | [2] 106 % of control

Fc1cccc(CSC(=S)Nc2ccccc2)c1
inactive: [8] 106 % of control | [9] 102 % of control | [10] 102 % of control

C[N+](C)(C)CCC(=O)c1ccc(O)cc1
inactive: dose: 3.13 mg/kg/injection, schedule: Q01DX009 (ip), vehicle: saline 97 % of control | dose: 6.25 mg/kg/injection, schedule: Q01DX009 (ip), vehicle: saline 100 % of control | dose: 12.5 mg/kg/injection, schedule: Q01DX009 (ip), vehicle: saline 118 % of control

CCCCCCC(CCCCCC)=NO
inactive: [3] 95 % of control | [4] 113 % of control | [5] 104 % of control

CC1(C)N=NC([Si](C)(C)C)=C1C(=O)c1ccccc1
inactive: dose: 60.0 mg/kg/injection, schedule: Q01DX005 (ip), vehicle: Klucel (hydroxypropylcellulose) (HPC) 101 % of control | dose: 120.0 mg/kg/injection, schedule: Q01DX005 (ip), vehicle: Klucel (hydroxypropylcellulose) (HPC) 98 % of control | dose: 240.0 mg/kg/injection, schedule: Q01DX005 (ip), vehicle: Klucel (hydroxypropylcellulose) (HPC) 105 % of control

C=C(C)C(C)CC(NC(C)=O)C(=O)OC (configuration not stated)
inactive: dose: 62.5 mg/kg/injection, schedule: Q04DX002 (ip), vehicle: Klucel (hydroxypropylcellulose) (HPC) 96 % of control | dose: 125.0 mg/kg/injection, schedule: Q04DX002 (ip), vehicle: Klucel (hydroxypropylcellulose) (HPC) 99 % of control | dose: 250.0 mg/kg/injection, schedule: Q04DX002 (ip), vehicle: Klucel (hydroxypropylcellulose) (HPC) 93 % of control

CC(C)=Cn1ccccc1=O
inactive: dose: 25.0 mg/kg/injection, schedule: Q01DX001 (ip), vehicle: saline 104 % of control and 108 % of control | dose: 50.0 mg/kg/injection, schedule: Q01DX001 (ip), vehicle: saline 99 % of control and 98 % of control | [8] 120 % of control and 95 % of control and 98 % of control | [9] 94 % of control | [10] 108 % of control

CCN(CC)C(C)(C)C(=O)/C=C/c1ccc(OC)cc1
inactive: dose: 60.0 mg/kg/injection, schedule: Q01DX005 (ip), vehicle: saline with Tween-80 115 % of control | dose: 120.0 mg/kg/injection, schedule: Q01DX005 (ip), vehicle: saline with Tween-80 107 % of control | dose: 240.0 mg/kg/injection, schedule: Q01DX005 (ip), vehicle: saline with Tween-80 100 % of control

Cc1cc(C2(c3cc(C)c(O)c(C)c3)OC(=O)c3ccccc32)cc(C)c1O
inactive: dose: 50.0 mg/kg/injection, schedule: Q01DX009 (ip), vehicle: Klucel (hydroxypropylcellulose) (HPC) 105 % of control | dose: 100.0 mg/kg/injection, schedule: Q01DX009 (ip), vehicle: Klucel (hydroxypropylcellulose) (HPC) 99 % of control | dose: 200.0 mg/kg/injection, schedule: Q01DX009 (ip), vehicle: Klucel (hydroxypropylcellulose) (HPC) 103 % of control

NC(CCSCc1ccccc1)P(=O)(O)O (configuration not stated)
inactive: [3] 100 % of control | [4] 97 % of control | [5] 92 % of control

CN(C)CCCOc1nc2c(c(=O)n(C)c(=O)n2C)n1C (tested in a mixture with another compound)
inactive: dose: 6.25 mg/kg/injection, schedule: Q01DX005 (ip), vehicle: Klucel (hydroxypropylcellulose) (HPC) 100 % of control | dose: 12.5 mg/kg/injection, schedule: Q01DX005 (ip), vehicle: Klucel (hydroxypropylcellulose) (HPC) 106 % of control | dose: 25.0 mg/kg/injection, schedule: Q01DX005 (ip), vehicle: Klucel (hydroxypropylcellulose) (HPC) 110 % of control
